# In PubChem BioAssay AID1259407 (Chemical Carcinogenesis Research Information System (CCRIS), 2018):
# Calls of active or inactive are those of the source. No rule for the calls is given here.
# Test system: CCRIS mutagenicity, Ames/micronucleus/aberration tests
# Experiment: CCRIS mutagenicity studies
# [1] = Test System: AMES SALMONELLA TYPHIMURIUM, Strain/Indicator: TA98, Metabolic Activation: NONE, Method: STANDARD PLATE
# [2] = Test System: AMES SALMONELLA TYPHIMURIUM, Strain/Indicator: TA100, Metabolic Activation: NONE, Method: STANDARD PLATE
# [3] = Test System: AMES SALMONELLA TYPHIMURIUM, Strain/Indicator: TA100, Metabolic Activation: NONE, Method: PREINCUBATION
structure (smiles),measurement,setting,value
CCCNc1snc2ccccc12,mutagenic call,[1],inactive; negative
same,mutagenic call,"Test System: AMES SALMONELLA TYPHIMURIUM, Strain/Indicator: TA98, Metabolic Activation: S-9, Method: STANDARD PLATE",inactive; negative
same,mutagenic call,[2],inactive; negative
same,mutagenic call,"Test System: AMES SALMONELLA TYPHIMURIUM, Strain/Indicator: TA100, Metabolic Activation: S-9, Method: STANDARD PLATE",inactive; negative
same,mutagenic call,"Test System: AMES SALMONELLA TYPHIMURIUM, Strain/Indicator: TA1535, Metabolic Activation: NONE, Method: STANDARD PLATE",inactive; negative
same,mutagenic call,"Test System: AMES SALMONELLA TYPHIMURIUM, Strain/Indicator: TA1535, Metabolic Activation: S-9, Method: STANDARD PLATE",inactive; negative
same,mutagenic call,"Test System: AMES SALMONELLA TYPHIMURIUM, Strain/Indicator: TA1537, Metabolic Activation: NONE, Method: STANDARD PLATE",inactive; negative
same,mutagenic call,"Test System: AMES SALMONELLA TYPHIMURIUM, Strain/Indicator: TA1537, Metabolic Activation: S-9, Method: STANDARD PLATE",inactive; negative
CC(C)Nc1ccccc1,mutagenic call,"Test System: AMES SALMONELLA TYPHIMURIUM, Strain/Indicator: TA98, Metabolic Activation: HAMSTER, LIVER, S-9, AROCLOR 1254 (5 OR 30%), Method: PREINCUBATION",inactive; negative
same,mutagenic call,"Test System: AMES SALMONELLA TYPHIMURIUM, Strain/Indicator: TA98, Metabolic Activation: NONE, Method: PREINCUBATION",inactive; negative
same,mutagenic call,"Test System: AMES SALMONELLA TYPHIMURIUM, Strain/Indicator: TA98, Metabolic Activation: RAT, LIVER, S-9, AROCLOR 1254 (10%), Method: PREINCUBATION",inactive; negative
same,mutagenic call,"Test System: AMES SALMONELLA TYPHIMURIUM, Strain/Indicator: TA100, Metabolic Activation: HAMSTER, LIVER, S-9, AROCLOR 1254 (10%), Method: PREINCUBATION",inactive; negative
same,mutagenic call,[3],inactive; negative
same,mutagenic call,"Test System: AMES SALMONELLA TYPHIMURIUM, Strain/Indicator: TA100, Metabolic Activation: RAT, LIVER, S-9, AROCLOR 1254 (10%), Method: PREINCUBATION",inactive; negative
same,mutagenic call,"Test System: AMES SALMONELLA TYPHIMURIUM, Strain/Indicator: TA1535, Metabolic Activation: HAMSTER, LIVER, S-9, AROCLOR 1254 (10%), Method: PREINCUBATION",inactive; negative
same,mutagenic call,"Test System: AMES SALMONELLA TYPHIMURIUM, Strain/Indicator: TA1535, Metabolic Activation: NONE, Method: PREINCUBATION",inactive; negative
same,mutagenic call,"Test System: AMES SALMONELLA TYPHIMURIUM, Strain/Indicator: TA1535, Metabolic Activation: RAT, LIVER, S-9, AROCLOR 1254 (10%), Method: PREINCUBATION",inactive; negative
same,mutagenic call,"Test System: AMES SALMONELLA TYPHIMURIUM, Strain/Indicator: TA1537, Metabolic Activation: HAMSTER, LIVER, S-9, AROCLOR 1254 (10%), Method: PREINCUBATION",inactive; negative
same,mutagenic call,"Test System: AMES SALMONELLA TYPHIMURIUM, Strain/Indicator: TA1537, Metabolic Activation: NONE, Method: PREINCUBATION",inactive; negative
same,mutagenic call,"Test System: AMES SALMONELLA TYPHIMURIUM, Strain/Indicator: TA1537, Metabolic Activation: RAT, LIVER, S-9, AROCLOR 1254 (10%), Method: PREINCUBATION",inactive; negative
CC(=O)c1cccc2c1OC1(C)OOC21C (stereo unspecified),mutagenic call,[3],active; positive
CO[C@@]12[C@H](CO)C3=C(C(=O)C(C)=C(N)C3=O)N1C[C@@H]1N[C@@H]12,mutagenic call,"Test System: CHINESE HAMSTER V-79, Strain/Indicator: V-79/6-THIOGUANINE, Metabolic Activation: NONE, Method: FLASK ASSAY",active; positive
O=C(Nc1ccc([N+](=O)[O-])cc1)c1csc([N+](=O)[O-])c1,mutagenic call,[1],active; positive
same,mutagenic call,[2],active; positive
O=[N+]([O-])c1ccc2ccc3cc4c(c5ccc1c2c35)C1OC1[C@@H](O)[C@@H]4O (stereo partly specified),mutagenic call,"Test System: CHINESE HAMSTER OVARY, Strain/Indicator: CHO-K1-BH4 (HGPRT)/6-THIOGUANINE, Metabolic Activation: NONE",active; positive
CC(=O)CN(CC(C)O)N=O (stereo unspecified),mutagenic call,"Test System: AMES SALMONELLA TYPHIMURIUM, Strain/Indicator: TA100, Metabolic Activation: HAMSTER, LIVER, S-9, 3-METHYLCHOLANTHRENE, Method: PREINCUBATION",active; positive
same,mutagenic call,"Test System: AMES SALMONELLA TYPHIMURIUM, Strain/Indicator: TA100, Metabolic Activation: HAMSTER, LIVER, S-9, PHENOBARBITAL, Method: PREINCUBATION",active; positive
same,mutagenic call,"Test System: AMES SALMONELLA TYPHIMURIUM, Strain/Indicator: TA100, Metabolic Activation: HAMSTER, LIVER, S-9, Method: PREINCUBATION",active; positive
same,mutagenic call,"Test System: AMES SALMONELLA TYPHIMURIUM, Strain/Indicator: TA100, Metabolic Activation: HUMAN, LIVER, S-9, Method: PREINCUBATION",active; positive
same,mutagenic call,"Test System: AMES SALMONELLA TYPHIMURIUM, Strain/Indicator: TA100, Metabolic Activation: MONKEY, LIVER, S-9, Method: PREINCUBATION",active; positive
same,mutagenic call,"Test System: AMES SALMONELLA TYPHIMURIUM, Strain/Indicator: TA100, Metabolic Activation: MOUSE, LIVER, S-9, 3-METHYLCHOLANTHRENE, Method: PREINCUBATION",active; positive
same,mutagenic call,"Test System: AMES SALMONELLA TYPHIMURIUM, Strain/Indicator: TA100, Metabolic Activation: MOUSE, LIVER, S-9, PHENOBARBITAL, Method: PREINCUBATION",active; positive
same,mutagenic call,"Test System: AMES SALMONELLA TYPHIMURIUM, Strain/Indicator: TA100, Metabolic Activation: MOUSE, LIVER, S-9, Method: PREINCUBATION",active; positive
same,mutagenic call,"Test System: AMES SALMONELLA TYPHIMURIUM, Strain/Indicator: TA100, Metabolic Activation: RABBIT, LIVER, S-9, Method: PREINCUBATION",active; positive
same,mutagenic call,"Test System: AMES SALMONELLA TYPHIMURIUM, Strain/Indicator: TA100, Metabolic Activation: RAT, LIVER, CYTOSOL, PCB, Method: PREINCUBATION",active; positive
same,mutagenic call,"Test System: AMES SALMONELLA TYPHIMURIUM, Strain/Indicator: TA100, Metabolic Activation: RAT, LIVER, MICROSOMES AND CYTOSOL, PCB, Method: PREINCUBATION",active; positive
same,mutagenic call,"Test System: AMES SALMONELLA TYPHIMURIUM, Strain/Indicator: TA100, Metabolic Activation: RAT, LIVER, MICROSOMES AND G6PDH, PCB, Method: PREINCUBATION",active; positive
same,mutagenic call,"Test System: AMES SALMONELLA TYPHIMURIUM, Strain/Indicator: TA100, Metabolic Activation: RAT, LIVER, MICROSOMES, PCB, Method: PREINCUBATION",active; positive
same,mutagenic call,"Test System: AMES SALMONELLA TYPHIMURIUM, Strain/Indicator: TA100, Metabolic Activation: RAT, LIVER, S-9 (HEATED), PCB, Method: PREINCUBATION",active; positive
same,mutagenic call,"Test System: AMES SALMONELLA TYPHIMURIUM, Strain/Indicator: TA100, Metabolic Activation: RAT, LIVER, S-9, 3-METHYLCHOLANTHRENE, Method: PREINCUBATION",active; positive
same,mutagenic call,"Test System: AMES SALMONELLA TYPHIMURIUM, Strain/Indicator: TA100, Metabolic Activation: RAT, LIVER, S-9, PCB, Method: PREINCUBATION",active; positive
same,mutagenic call,"Test System: AMES SALMONELLA TYPHIMURIUM, Strain/Indicator: TA100, Metabolic Activation: RAT, LIVER, S-9, PHENOBARBITAL, Method: PREINCUBATION",active; positive
same,mutagenic call,"Test System: AMES SALMONELLA TYPHIMURIUM, Strain/Indicator: TA100, Metabolic Activation: RAT, LIVER, S-9, Method: PREINCUBATION",active; positive
same,mutagenic call,"Test System: AMES SALMONELLA TYPHIMURIUM, Strain/Indicator: TA100, Metabolic Activation: RAT, LIVER, S-9 WITHOUT NADP+, PCB, Method: PREINCUBATION",active; positive
same,mutagenic call,"Test System: AMES SALMONELLA TYPHIMURIUM, Strain/Indicator: TA100, Method: PREINCUBATION",active; positive
same,mutagenic call,"Test System: CHINESE HAMSTER V-79, Strain/Indicator: V-79/OUABAIN, Metabolic Activation: HAMSTER, HEPATOCYTES, Method: CELL-MEDIATED",active; positive
